Data as given in patent US5459143A, “N,N-disubstituted piperazines” (Bayer Aktiengesellschaft, priority 1993, dated 1995).

What was measured:
[1] = tested on: monocyte-free human T cells; assay: Inhibition of 5-HT-dependent T cell proliferation; type: cell-based; conditions: PWM (1:200) and 5-HT (100 μM) stimulated T cells, 3H-thymidine incorporation on day 7, tested at 33 μM-0.1 μM
From the text: The in vitro activity of the compounds according to the invention results from their capability to inhibit T cell proliferation, which is previously stimulated by serotonin.
Inhibition of 5-HT-dependent T cell proliferation
Peripheral mononuclear blood cells (PBMC) are obtained from the buffy coat of the blood of healthy subjects. After isolation by means of isolymph gradients (Pharmacia), the PBMC are washed twice and used directly. Purified T cells are obtained by E rosette formation with sheep erythrocytes [cf. Blue, M. -L., J. F. Daley, H. Levine, K. A. Craig and S. F. Schlossmann, 1986, Biosynthesis and surface expression of T8 by peripheral blood T4+ cells in vitro, J. Immunol. 137, 1202]. Monocytes are partially removed by adhesion to tissue culture plates or flasks. PBMC, T cells or purified T cells (depleted in monocytes) at 5×10^5 /ml, 100 μl/well are cultured in RPMI 1640 medium with 10% fetal calf serum (GIBCO) and L-glutamine in 96-well microculture plates (Becton-Dickinson) under a 5% CO2 atmosphere at 37° C. for 7 days. The cultures are treated with 1 μCi of ^3 H-thymidine for 6 h on the 7th day and collected on filter paper, and the incorporated radioactivity is determined by means of liquid scintillation counting.
The test substances are dissolved in 10 mM HCl in order to achieve a final concentration of 1 mM in each case. The compounds are diluted serially 3× with medium in order to obtain a final concentration between 33 μM-0.1 μM. PWM (1:200, pokeweed mitogen) and 5-HT (100 μM, serotonin), which contain the test substances, are added to monocyte-free human T cells. The positive control (maximum proliferation) is obtained from cultures containing T cells, PWM and 5-HT. The negative control (minimal proliferation) is obtained from cultures containing T cells and PWM without 5-HT. The inhibitory activity of the test substances is expressed as the IC50 in μM.

Lewis rats = assay: Adjuvant arthritis model in the rat; type: in vivo; conditions: Freund's adjuvant arthritis, malleolus diameter day 16 vs day 0, dosing on days 0, 1, 2, 5, 7, 9, 12 and 14
Method: Adjuvant arthritis model in the rat
Freund's adjuvant (FA) is prepared by addition of 10 mg/ml of heat-killed Mycobacterium butyricum to extra-heavy mineral oil. Lewis rats receive a 0.1 ml injection of FA (1 mg/animal) subcutaneously in the right hind paw. An acute inflammation takes place there, which is characterized by reddening, edema and a predominant neutrophilic cell infiltration (primary reaction). Tumescent areas in the treated paw on day 5 are followed between day 10-12 by an increase in the swelling (chronic inflammatory reaction) and the occurrence of a swelling in the opposite untreated paw (secondary immune response).
The cell infiltration of the chronic inflammation and the second immune response are mainly mononuclear, which indicates the presence of T-cell mediated immunity. The animals are observed daily, and the swelling is measured in millimeters on days 12 and 16 using a hand-adjustable micrometer. The swelling reaches its peak on the 16th day, on which the animals are sacrificed and tissue samples are taken for histological evaluation.
The extent of the swelling is determined by calculation of the greatest difference in the malleolus diameter between the 16th and the 0th day.
The animals receive the compounds according to the invention in a suspension of 5% polyethylene glycol and 0.5% Tween 80 in phosphate buffer solution p.o. or i.p. on days 0, 1, 2, 5, 7, 9, 12 and 14 [cf. for this purpose L. Sokoloff, 1984, Int. Rev. Exp. Pathol. 26, 107; M. E. J. Bittingham et al., 1989, J. Exp. Med. 171, 339; K. M. Connolly et al., 1989, Agents and Actions 27, 328].

Row | Structure (SMILES) | IC50 [1] | Inhibition of the swelling in % after administration of 10 mg/kg i.p. (Lewis rats)
1 | c1ccc2c(c1)C1c3ccccc3C2C2CN(CCCN3CCN(C4CCCCCC4)CC3)CC12 (centres unmarked) [Example 19] | 5000 nM | 
2 | FC(F)(F)c1ccccc1CCN1CCN(CCCN2CC3C4c5ccccc5C(c5ccccc54)C3C2)CC1 (centres unmarked) [Example 16] | 5000 nM | 13%
3 | Fc1ccc(C(CCCN2CCN(CCCN3CC4C5c6ccccc6C(c6ccccc65)C4C3)CC2)c2ccc(F)cc2)cc1 (centres unmarked) [Example 23] | 100 nM | 
4 | c1ccc(C(c2ccccc2)N2CCN(CCCN3CC4C5c6ccccc6C(c6ccccc65)C4C3)CC2)cc1 (centres unmarked) [Example 21] | 500 nM | 0.5%
5 | c1cnc(N2CCN(CCCN3CC4C5c6ccccc6C(c6ccccc65)C4C3)CC2)nc1 (centres unmarked) [Example 15] | 2000 nM | 
6 | O=C1C2C3c4ccccc4C(c4ccccc43)C2C(=O)N1CCCN1CCN(C(c2ccccc2)c2ccccc2)CC1 (centres unmarked) [Example 4] | > 10000 nM | 
7 | O=C1C2C3c4ccccc4C(c4ccccc43)C2C(=O)N1CCCN1CCN(C(c2ccc(F)cc2)c2ccc(F)cc2)CC1 (centres unmarked) [Example 1] | > 10000 nM | 
8 | O=C1C2C3c4ccccc4C(c4ccccc43)C2C(=O)N1CCCN1CCN(CCc2ccccc2C(F)(F)F)CC1 (centres unmarked) [Example 5] | 2000 nM | 24%
9 | Clc1ccc(C(c2ccccc2)N2CCN(CCCN3CC4C5c6ccccc6C(c6ccccc65)C4C3)CC2)cc1 (centres unmarked) [Example 26] | 1000 nM | 
10 | Fc1ccc(C(c2ccc(F)cc2)N2CCN(CCCN3CC4C5c6ccccc6C(c6ccccc65)C4C3)CC2)cc1 (centres unmarked) [Example 13] |  | 2%
11 | O=C1C2C3c4ccccc4C(c4ccccc43)C2C(=O)N1CCCN1CCN(c2ncccn2)CC1 (centres unmarked) [Example 3] | > 10000 nM | 
12 | CC(C)(C)c1ccc(CN2CCN(CCCN3CC4C5c6ccccc6C(c6ccccc65)C4C3)CC2)cc1 (centres unmarked) [Example 18] | 2000 nM | 
13 | c1cnc(N2CCN(CCCCN3CC4C5c6ccccc6C(c6ccccc65)C4C3)CC2)nc1 (centres unmarked) [Example 17] | > 10000 nM | 
14 | O=C1C2C3c4ccccc4C(c4ccccc43)C2C(=O)N1CCCN1CCN(C(c2ccccc2)c2ccc(Cl)cc2)CC1 (centres unmarked) [Example 8] | 50000 nM | 
15 | c1ccc2c(c1)C1c3ccccc3C2C2CN(CCCN3CCN(C4CCCC4)CC3)CC12 (centres unmarked) [Example 24] | 6000 nM | 
16 | CC12c3ccccc3C(c3ccccc31)C1CN(CCCN3CCN(C(c4ccccc4)c4ccccc4)CC3)CC12 (centres unmarked) [Example 20] | 500 nM | 79%
17 | CC(C)(C)c1ccc(CN2CCN(CCCN3C(=O)C4C5c6ccccc6C(c6ccccc65)C4C3=O)CC2)cc1 (centres unmarked) [Example 6] | 3000 nM | 24%
18 | O=C1C2C3c4ccccc4C(c4ccccc43)C2C(=O)N1CCCN1CCN(C2CCCC2)CC1 (centres unmarked) [Example 10] | 30000 nM | 
